# Test results as given in patent US20250268960A1, “COMPOSITION FOR PREVENTION AND TREATMENT OF OBESITY OR INSULIN RESISTANCE SYNDROME COMPRISING LACTOBACILLUS PLANTARUM HAC03 AND RUTIN” (HANDONG GLOBAL UNIVERSITY INDUSTRY-ACADEMIC COOPERATION …, priority 2023, published 2025).
# Test system: PR/SET domain 16 (PRDM16)
# Test: qPCR expression of thermogenesis gene PRDM16 in brown adipose tissue
# Type: in vivo, C57BL6 mice
# Settings: mRNA, brown adipose tissue (BAT), high-fat diet mice; compared to HFD group
# Procedure: Five-week-old male C57BL6 mice were purchased and acclimated for one week. Then, the mice in each group (n=10) were fed a low-fat diet or high-fat diet. After first allowing them to consume a low-fat diet or high-fat diet for a week, the mice in each group were orally administered with Lactobacillus plantarum HAC03, quercetin, or rutin once a day for 14 weeks.
# Then, the expression levels of lipogenesis-related genes were measured at the mRNA level through qPCR.
# Specifically, the colons of mice in each experimental group were homogenized, dissolved in Trizol® (RNA extraction buffer, Thermo Fisher), and RNA was extracted according to the protocol provided by the manufacturer. The extracted RNA was quantified, and an equal amount of RNA was synthesized into cDNA by reverse transcription using the SuperiorScript III cDNA synthesis Kit (Enzynomics, Daejeon, South Korea). Thereafter, real-time PCR was performed using each gene-specific primer in Table 3, TOPreal qPCR 2X premix (SYBR Green with high ROX) (Enzynomics, Daejeon, South Korea), and cDNA. Real-time PCR was performed using the ABI 7500 Fast Real time PCR system (Applied Biosystems, Waltham, MA, USA). The relative gene expression levels were calculated using the ÄÄCt method.
compound,measurement,value
"O=c1c(O)c(-c2ccc(O)c(O)c2)oc2cc(O)cc(O)c12 [Q, Quercetin]",expression level of PRDM16,increased
